Measured values: patent US20070276141A1, “Preparation of Pharmaceutical Salts of [1,4] - Bipiperidine” (priority 2003, published 2007)

Assay: Relative stability of solid forms
Type: physicochemical
Conditions: test conditions not given

Compound: Cc1ccc(S(=O)(=O)NC(=O)N2CCC(N3CCC(Oc4ccc(Cl)c(Cl)c4)CC3)CC2)cc1 [Hydrate Form A, N-[[4-(3,4-dichlorophenoxy)[1,4′-bipiperidin]-1′-yl]carbonyl]-4-methyl-benzenesulfonamide]
- stability compared with other solid forms of the sodium salt: more stable than Hydrate Forms B and D and Solvated Form E
